Results from ChEMBL document CHEMBL1671626, “In vitro profiling of ceftaroline against a collection of recent bacterial clinical isolates from across the United States” (2008).
Converted amounts (≈) assume the structure as drawn.

Tests used:
Type in all cases: functional
Enterococcus faecalis [1] = assay: Antibacterial activity against vancomycin-resistant Enterococcus faecalis by CLSI M7-A7 broth microdilution method
Staphylococcus aureus [2] = assay: Antibacterial activity against methicillin-susceptible Staphylococcus aureus assessed as resistant isolates by CLSI M7-A7 broth microdilution method
Streptococcus agalactiae [3] = assay: Antibacterial activity against erythromycin-susceptible Streptococcus agalactiae by CLSI M7-A7 broth microdilution method
Staphylococcus aureus [4] = assay: Antibacterial activity against coagulase-negative and oxacillin-resistant Staphylococcus aureus by CLSI M7-A7 broth microdilution method
Streptococcus pyogenes [5] = assay: Antibacterial activity against erythromycin-susceptible Streptococcus pyogenes by CLSI M7-A7 broth microdilution method
Enterococcus faecium [6] = assay: Antibacterial activity against vancomycin-resistant Enterococcus faecium by CLSI M7-A7 broth microdilution method
Enterococcus faecalis [7] = assay: Antibacterial activity against vancomycin-susceptible Enterococcus faecalis by CLSI M7-A7 broth microdilution method
Streptococcus agalactiae [8] = assay: Antibacterial activity against erythromycin-susceptible Streptococcus agalactiae assessed as susceptible isolates by CLSI M7-A7 broth microdilution method
Streptococcus pneumoniae [9] = assay: Antibacterial activity against penicillin-susceptible Streptococcus pneumoniae by CLSI M7-A7 broth microdilution method
Enterococcus faecalis [10] = assay: Antibacterial activity against vancomycin-resistant Enterococcus faecalis assessed as resistant isolates by CLSI M7-A7 broth microdilution method
Enterococcus faecalis [11] = assay: Antibacterial activity against vancomycin-resistant Enterococcus faecalis assessed as susceptible isolates by CLSI M7-A7 broth microdilution method
Staphylococcus aureus [12] = assay: Antibacterial activity against methicillin-resistant Staphylococcus aureus assessed as resistant isolates by CLSI M7-A7 broth microdilution method
Streptococcus pyogenes [13] = assay: Antibacterial activity against erythromycin-susceptible Streptococcus pyogenes assessed as susceptible isolates by CLSI M7-A7 broth microdilution method
Enterococcus faecium [14] = assay: Antibacterial activity against vancomycin-resistant Enterococcus faecium assessed as resistant isolates by CLSI M7-A7 broth microdilution method
Streptococcus viridans [15] = assay: Antibacterial activity against penicillin-susceptible Streptococcus viridans by CLSI M7-A7 broth microdilution method
Staphylococcus aureus [16] = assay: Antibacterial activity against methicillin-resistant Staphylococcus aureus by CLSI M7-A7 broth microdilution method
Streptococcus pneumoniae [17] = assay: Antibacterial activity against penicillin-susceptible Streptococcus pneumoniae assessed as susceptible isolates by CLSI M7-A7 broth microdilution method
Streptococcus viridans [18] = assay: Antibacterial activity against penicillin-susceptible Streptococcus viridans assessed as susceptible isolates by CLSI M7-A7 broth microdilution method
Streptococcus pyogenes [19] = assay: Antibacterial activity against erythromycin-nonsusceptible Streptococcus pyogenes by CLSI M7-A7 broth microdilution method
Streptococcus pneumoniae [20] = assay: Antibacterial activity against penicillin-resistant Streptococcus pneumoniae assessed as susceptible isolates by CLSI M7-A7 broth microdilution method
Staphylococcus aureus [21] = assay: Antibacterial activity against coagulase-negative and oxacillin-resistant Staphylococcus aureus assessed as resistant isolates by CLSI M7-A7 broth microdilution method
Enterococcus faecium [22] = assay: Antibacterial activity against vancomycin-resistant Enterococcus faecium assessed as susceptible isolates by CLSI M7-A7 broth microdilution method
Staphylococcus aureus [23] = assay: Antibacterial activity against methicillin-susceptible Staphylococcus aureus by CLSI M7-A7 broth microdilution method
Enterococcus faecalis [24] = assay: Antibacterial activity against vancomycin-susceptible Enterococcus faecalis assessed as resistant isolates by CLSI M7-A7 broth microdilution method
Streptococcus agalactiae [25] = assay: Antibacterial activity against erythromycin-nonsusceptible Streptococcus agalactiae assessed as susceptible isolates by CLSI M7-A7 broth microdilution method
Streptococcus agalactiae [26] = assay: Antibacterial activity against erythromycin-nonsusceptible Streptococcus agalactiae by CLSI M7-A7 broth microdilution method
Streptococcus pneumoniae [27] = assay: Antibacterial activity against penicillin-resistant Streptococcus pneumoniae by CLSI M7-A7 broth microdilution method
Enterococcus faecalis [28] = assay: Antibacterial activity against vancomycin-susceptible Enterococcus faecalis assessed as susceptible isolates by CLSI M7-A7 broth microdilution method
Streptococcus viridans [29] = assay: Antibacterial activity against penicillin-nonsusceptible Streptococcus viridans assessed as susceptible isolates by CLSI M7-A7 broth microdilution method
Streptococcus pyogenes [30] = assay: Antibacterial activity against erythromycin-nonsusceptible Streptococcus pyogenes assessed as susceptible isolates by CLSI M7-A7 broth microdilution method
Staphylococcus aureus [31] = assay: Antibacterial activity against coagulase-negative and oxacillin-susceptible Staphylococcus aureus by CLSI M7-A7 broth microdilution method
Staphylococcus aureus [32] = assay: Antibacterial activity against coagulase-negative and oxacillin-susceptible Staphylococcus aureus assessed as resistant isolates by CLSI M7-A7 broth microdilution method
Streptococcus viridans [33] = assay: Antibacterial activity against penicillin-nonsusceptible Streptococcus viridans by CLSI M7-A7 broth microdilution method

With `CN[C@H](CC(C)C)C(=O)N[C@H]1C(=O)N[C@@H](CC(N)=O)C(=O)N[C@H]2C(=O)N[C@H]3C(=O)N[C@H](C(=O)N[C@H](C(=O)O)c4cc(O)cc(O)c4-c4cc3ccc4O)[C@H](O)c3ccc(c(Cl)c3)Oc3cc2cc(c3O[C@@H]2O[C@H](CO)[C@@H](O)[C@H](O)[C@H]2O[C@H]2C[C@](C)(N)[C@H](O)[C@H](C)O2)Oc2ccc(cc2Cl)[C@H]1O` [VANCOMYCIN] the MIC (Enterococcus faecalis [1]) was > 16 µg/mL, the MIC50 (Enterococcus faecalis [1]) was > 16 µg/mL and the MIC90 (Enterococcus faecalis [1]) was > 16 µg/mL. The Activity (Staphylococcus aureus [2]) was 0%, the MIC50 (Streptococcus agalactiae [3]) was 0.5 µg/mL (≈ 0.345 µM) and the MIC90 (Streptococcus agalactiae [3]) was 0.5 µg/mL (≈ 0.345 µM). The MIC50 (Staphylococcus aureus [4]) was 1 µg/mL (≈ 0.69 µM), the MIC90 (Staphylococcus aureus [4]) was 2 µg/mL (≈ 1.38 µM) and the MIC (Streptococcus pyogenes [5]) was 0.25 µg/mL (≈ 0.173 µM). The MIC50 (Streptococcus pyogenes [5]) was 0.25 µg/mL (≈ 0.173 µM), the MIC90 (Streptococcus pyogenes [5]) was 0.5 µg/mL (≈ 0.345 µM) and the MIC (Enterococcus faecium [6]) was > 16 µg/mL. For the same molecule, the MIC50 (Enterococcus faecium [6]) was > 16 µg/mL, the MIC90 (Enterococcus faecium [6]) was > 16 µg/mL and the MIC50 (Enterococcus faecalis [7]) was 1 µg/mL (≈ 0.69 µM). The MIC90 (Enterococcus faecalis [7]) was 2 µg/mL (≈ 1.38 µM), the Activity (Streptococcus agalactiae [8]) was 100% and the MIC50 (Streptococcus pneumoniae [9]) was 0.25 µg/mL (≈ 0.173 µM). For the same molecule, the MIC90 (Streptococcus pneumoniae [9]) was 0.5 µg/mL (≈ 0.345 µM), the Activity (Enterococcus faecalis [10]) was 100% and the Activity (Enterococcus faecalis [11]) was 0%. The Activity (Staphylococcus aureus [12]) was 0.3%, the Activity (Streptococcus pyogenes [13]) was 100% and the Activity (Enterococcus faecium [14]) was 100%. The MIC50 (Streptococcus viridans [15]) was 0.5 µg/mL (≈ 0.345 µM), the MIC90 (Streptococcus viridans [15]) was 0.5 µg/mL (≈ 0.345 µM) and the MIC50 (Staphylococcus aureus [16]) was 1 µg/mL (≈ 0.69 µM). The MIC90 (Staphylococcus aureus [16]) was 1 µg/mL (≈ 0.69 µM), the Activity (Streptococcus pneumoniae [17]) was 100% and the Activity (Streptococcus viridans [18]) was 100%. For the same molecule, the MIC (Streptococcus pyogenes [19]) was 0.25 µg/mL (≈ 0.173 µM), the MIC50 (Streptococcus pyogenes [19]) was 0.25 µg/mL (≈ 0.173 µM) and the MIC90 (Streptococcus pyogenes [19]) was 0.5 µg/mL (≈ 0.345 µM). It also gave an Activity (Streptococcus pneumoniae [20]) of 100%, an Activity (Staphylococcus aureus [21]) of 0% and an Activity (Enterococcus faecium [22]) of 0%. For the same molecule, the MIC50 (Staphylococcus aureus [23]) was 0.5 µg/mL (≈ 0.345 µM), the MIC90 (Staphylococcus aureus [23]) was 1 µg/mL (≈ 0.69 µM) and the Activity (Enterococcus faecalis [24]) was 0%. For the same molecule, the Activity (Streptococcus agalactiae [25]) was 100%, the MIC50 (Streptococcus agalactiae [26]) was 0.5 µg/mL (≈ 0.345 µM) and the MIC90 (Streptococcus agalactiae [26]) was 0.5 µg/mL (≈ 0.345 µM). It also gave an MIC50 (Streptococcus pneumoniae [27]) of 0.25 µg/mL (≈ 0.173 µM), an MIC90 (Streptococcus pneumoniae [27]) of 0.5 µg/mL (≈ 0.345 µM) and an Activity (Enterococcus faecalis [28]) of 100%. It also gave an Activity (Streptococcus viridans [29]) of 92.9%, an Activity (Streptococcus pyogenes [30]) of 100% and an MIC50 (Staphylococcus aureus [31]) of 1 µg/mL (≈ 0.69 µM). The MIC90 (Staphylococcus aureus [31]) was 2 µg/mL (≈ 1.38 µM), the Activity (Staphylococcus aureus [32]) was 0% and the MIC (Streptococcus viridans [33]) was 0.5 µg/mL (≈ 0.345 µM). The MIC50 (Streptococcus viridans [33]) was 0.5 µg/mL (≈ 0.345 µM) and the MIC90 (Streptococcus viridans [33]) was 1 µg/mL (≈ 0.69 µM).
